Key:
[1] = microcentrifuge dissolution test (in vitro evaluation of concentration enhancement); type: physicochemical; conditions: for AUC: area under concentration-versus-time curve in PBS pH 6.5, 37° C.; for Concentration: dissolved torcetrapib in supernatant, 1000 μg/mL if all drug dissolved
Procedure: The solid composition of Example 1 was evaluated in vitro using a microcentrifuge dissolution test as follows. For this test, a sufficient amount of material was added to a microcentrifuge test tube so that the concentration of torcetrapib would have been 1000 μg/mL, if all of the drug had dissolved. The test was run in duplicate. The tubes were placed in a 37° C. temperature-controlled chamber, and 1.8 mL PBS at pH 6.5 and 290 mOsm/kg was added to each respective tube. The samples were quickly mixed using a vortex mixer for about 60 seconds. The samples were centrifuged at 13,000 G at 37° C. for 1 minute. The resulting supernatant solution was then sampled and diluted 1:6 (by volume) with methanol and then analyzed by HPLC. The contents of each tube were mixed on the vortex mixer and allowed to stand undisturbed at 37° C. until the next sample was taken. Samples were collected at 4, 10, 20, 40, 90, and 1200 minutes. Control 1 (C1) consisted of crystalline torcetrapib alone, and a sufficient amount of material was added so that the concentration of drug would have been 1000 μg/mL, if all of the drug had dissolved. The concentrations of drug obtained in these samples were used to determine the maximum drug concentration (“MDC90”) and the area under the concentration-versus-time curve (“AUC90”) during the initial ninety minutes.

[2] = aqueous solubility; type: physicochemical; conditions: aqueous medium; aqueous solubility determined at about 22° C. unless otherwise specified
Procedure: A second property of hydrophobic drugs is that they have low aqueous solubility. […] Extremely low aqueous solubility often leads to poor or slow absorption of the drug from the fluid of the gastrointestinal tract, when the drug is dosed orally in a conventional manner. For extremely low solubility drugs, absorption generally becomes progressively more difficult as the dose (mass of drug given orally) increases. Thus, a third property of hydrophobic drugs is a very high dose (in mg) to solubility (In mg/ml) ratio (ml). By “very high dose-to-solubility ratio” is meant that the dose-to-solubility ratio may have a value of at least 1000 ml, at least 5,000 ml, or even at least 10,000 ml. The dose-to-solubility ratio may be determined by dividing the dose (in mg) by the aqueous solubility (in mg/ml).
CETP inhibitors, in particular torcetrapib, and methods for preparing such compounds are disclosed in detail in U.S. Pat. Nos. 6,197,786 and 6,313,142, in PCT Application Nos. WO 01/40190A1, WO 02/088085A2, and WO 02/088069A2, the disclosures of which are herein incorporated by reference. Torcetrapib has an unusually low solubility in aqueous environments such as the lumenal fluid of the human GI tract. The aqueous solubility of torcetrapib is less than about 0.04 μg/ml. […]

[3] = during the initial ninety minutes, PBS pH 6.5, 37° C.

AUC ([1]; up to time 0 min): 0 µg·min/mL
AUC ([1]; up to time 4 min): <2 µg·min/mL
AUC ([1]; up to time 10 min): <8 µg·min/mL
AUC ([1]; up to time 20 min): <18 µg·min/mL
AUC ([1]; up to time 40 min): <38 µg·min/mL
AUC ([1]; up to time 90 min): <88 µg·min/mL
AUC ([1]; up to time 1200 min): <1,200 min*μg/mL
C1200 ([1]; concentration at 1200 minutes, PBS pH 6.5, 37° C.): <1 µg/mL
Concentration ([1]; PBS pH 6.5, 37° C., time 0 min): 0 µg/mL
Concentration ([1]; PBS pH 6.5, 37° C., time 4 min): <1 µg/mL
Concentration ([1]; PBS pH 6.5, 37° C., time 10 min): <1 µg/mL
Concentration ([1]; PBS pH 6.5, 37° C., time 20 min): <1 µg/mL
Concentration ([1]; PBS pH 6.5, 37° C., time 40 min): <1 µg/mL
Concentration ([1]; PBS pH 6.5, 37° C., time 90 min): <1 µg/mL
Concentration ([1]; PBS pH 6.5, 37° C., time 1200 min): <1 µg/mL
AUC90 (area under the concentration-versus-time curve) [1, 3]: <88 µg·min/mL
MDC90 (maximum drug concentration) [1, 3]: <1 µg/mL
solubility [2]: < 0.04 µg/mL
Compound: CCOC(=O)N1c2ccc(C(F)(F)F)cc2[C@@H](N(Cc2cc(C(F)(F)F)cc(C(F)(F)F)c2)C(=O)OC)C[C@H]1CC [torcetrapib, [2R,4S]-4-[(3,5-bis-trifluoromethyl-benzyl)-methoxycarbonyl-amino]-2-ethyl-6-trifluoromethyl-3,4-dihydro-2H-quinoline-1-carboxylic acid ethyl ester]
